Laboratory results as given in ChEMBL document CHEMBL1914354, “Design, synthesis and antiepileptic properties of novel 1-(substituted benzylidene)-3-(1-(morpholino/piperidino methyl)-2,3-dioxoindolin-5-yl)urea derivatives” (Eur J Med Chem, 2011).
Activity calls are given as the source filed them. No cut-off for these calls is given here.

Key:
Mus musculus [1] = assay: Antiepileptic activity in ip dosed Swiss albino mouse assessed as dose required to protect against maximum electric shock-induced seizure after 4 hrs; type: functional; settings: read-out: MED
Rattus norvegicus [2] = assay: Antiepileptic activity in Wistar rat assessed as protection against maximum electric shock-induced seizure at 30 mg/kg, po after 1 hr; type: functional
Mus musculus [3] = assay: Antiepileptic activity in ip dosed Swiss albino mouse assessed as dose required to protect against subcutaneous pentylenetetrazol-induced clonic seizures after 4 hrs; type: functional; settings: read-out: MED
Mus musculus [4] = assay: Antiepileptic activity in ip dosed Swiss albino mouse assessed as protection against subcutaneous pentylenetetrazol-induced clonic seizures at 300 mg/kg, ip after 0.5 hrs; type: functional, organism-based; design: dose 300 mg/kg
Mus musculus [5] = assay: Neurotoxicity in ip dosed Swiss albino mouse assessed as dose required for minimal motor impairment after 4 hrs by rotarod test; type: toxicity, organism-based; settings: in vivo
Rattus norvegicus [6] = assay: Antiepileptic activity in Wistar rat assessed as protection against maximum electric shock-induced seizure at 30 mg/kg, po after 0.25 hrs; type: functional
Rattus norvegicus [7] = assay: Antiepileptic activity in Wistar rat assessed as protection against maximum electric shock-induced seizure at 30 mg/kg, po after 4 hrs; type: functional
Rattus norvegicus [8] = assay: Neurotoxicity in Wistar rat assessed as minimal motor impairment at 30 mg/kg, po by rotarod method; type: toxicity, organism-based; design: dose 30 mg/kg, route oral; settings: in vivo
Rattus norvegicus [9] = assay: Antiepileptic activity in Wistar rat assessed as protection against maximum electric shock-induced seizure at 30 mg/kg, po after 0.5 hrs; type: functional
Rattus norvegicus [10] = assay: Antiepileptic activity in Wistar rat assessed as protection against maximum electric shock-induced seizure at 30 mg/kg, po after 2 hrs; type: functional
Mus musculus [11] = assay: Antiepileptic activity in ip dosed Swiss albino mouse assessed as dose required to protect against maximum electric shock-induced seizure after 0.5 hrs; type: functional; settings: read-out: MED
Mus musculus [12] = assay: Neurotoxicity in ip dosed Swiss albino mouse assessed as dose required for minimal motor impairment after 0.5 hrs by rotarod test; type: toxicity, organism-based; settings: in vivo
Mus musculus [13] = assay: Antiepileptic activity in ip dosed Swiss albino mouse assessed as protection against subcutaneous pentylenetetrazol-induced clonic seizures at 300 mg/kg, ip after 4 hrs; type: functional, organism-based; design: dose 300 mg/kg
Mus musculus [14] = assay: Antiepileptic activity in Swiss albino mouse assessed as protection against maximum electric shock-induced seizure at 300 mg/kg, ip after 0.5 hrs; type: functional, organism-based; design: dose 300 mg/kg
Mus musculus [15] = assay: Antiepileptic activity in Swiss albino mouse assessed as protection against maximum electric shock-induced seizure at 300 mg/kg, ip after 4 hrs; type: functional, organism-based; design: dose 300 mg/kg
Mus musculus [16] = assay: Antiepileptic activity in ip dosed Swiss albino mouse assessed as dose required to protect against subcutaneous pentylenetetrazol-induced clonic seizures after 0.5 hrs; type: functional; settings: read-out: MED
Mus musculus [17] = assay: Neurotoxicity in Swiss albino mouse assessed as minimal motor impairment at 300 mg/kg, ip after 0.5 hrs by rotarod test; type: toxicity, organism-based; design: dose 300 mg/kg, route intraperitoneal; settings: in vivo
Mus musculus [18] = assay: Neurotoxicity in ip dosed Swiss albino mouse assessed as minimal motor impairment at 300 mg/kg, ip after 4 hrs by rotarod test; type: toxicity, organism-based; design: dose 300 mg/kg, route intraperitoneal; settings: in vivo
Mus musculus [19] = assay: Antiepileptic activity in ip dosed Swiss albino mouse assessed as protection against subcutaneous pentylenetetrazol-induced clonic seizures at 30 to 100 mg/kg, ip after 0.5 hrs; type: functional; settings: sc, dose mg/kg 30-100, read-out: MED

Compound	minimal effective dose (Mus musculus [1]) [mg/kg]	Activity (Rattus norvegicus [2]) [%]	minimal effective dose (Mus musculus [3]) [mg/kg]	Activity (Mus musculus [4])	MTC (Mus musculus [5]) [mg/kg]	Activity (Rattus norvegicus [6]) [%]	Activity (Rattus norvegicus [7]) [%]	Activity (Rattus norvegicus [8])	Activity (Rattus norvegicus [9]) [%]	Activity (Rattus norvegicus [10]) [%]	minimal effective dose (Mus musculus [11]) [mg/kg]	MTC (Mus musculus [12]) [mg/kg]	Activity (Mus musculus [13])	Activity (Mus musculus [14])	Activity (Mus musculus [15])	minimal effective dose (Mus musculus [16]) [mg/kg]	Activity (Mus musculus [17])	Activity (Mus musculus [18])	minimal effective dose (Mus musculus [19]) [mg/kg]
O=C(/N=C/c1ccc(Br)cc1)Nc1ccc2c(c1)C(=O)C(=O)N2CN1CCCCC1	300	50	300	inactive	300	25	100	Non-toxic	50	100	30	100							
O=C(/N=C/c1ccccc1)Nc1ccc2c(c1)C(=O)C(=O)N2CN1CCCCC1													inactive	inactive	inactive	300			
O=C(/N=C/c1ccc([N+](=O)[O-])cc1)Nc1ccc2c(c1)C(=O)C(=O)N2CN1CCCCC1	100	25	300		300	0	0	Non-toxic	50	0	30	300				300			
Cc1ccc(/C=N/C(=O)Nc2ccc3c(c2)C(=O)C(=O)N3CN2CCCCC2)cc1													inactive	inactive	inactive	300			
O=C(/N=C/c1cccc([N+](=O)[O-])c1)Nc1ccc2c(c1)C(=O)C(=O)N2CN1CCOCC1	300			inactive									inactive	inactive					
O=C(/N=C/c1ccccc1Cl)Nc1ccc2c(c1)C(=O)C(=O)N2CN1CCCCC1	300				300						100	100	inactive			300			
O=C(/N=C/c1ccc(Cl)cc1)Nc1ccc2c(c1)C(=O)C(=O)N2CN1CCOCC1	100	50	300			25	100	Non-toxic	50	100	30					300	Non-toxic	Non-toxic	
CCC1(C)CC(=O)NC1=O (stereo unspecified) [ETHOSUXIMIDE]			300											inactive	inactive	100	Non-toxic	Non-toxic	
O=C(/N=C/c1cccc([N+](=O)[O-])c1)Nc1ccc2c(c1)C(=O)C(=O)N2CN1CCCCC1			300	inactive										inactive	inactive				
COc1ccc(/C=N/C(=O)Nc2ccc3c(c2)C(=O)C(=O)N3CN2CCCCC2)cc1	300												inactive	inactive		300			
O=C(/N=C/c1ccc(Cl)cc1)Nc1ccc2c(c1)C(=O)C(=O)N2CN1CCCCC1	300				300						100		inactive			300	Non-toxic		
O=C(/N=C/c1ccccc1)Nc1ccc2c(c1)C(=O)C(=O)N2CN1CCOCC1	300			inactive									inactive	inactive					
O=C(/N=C/c1ccc(Br)cc1)Nc1ccc2c(c1)C(=O)C(=O)N2CN1CCOCC1	300										100		inactive			300	Non-toxic	Non-toxic	
COc1ccc(/C=N/C(=O)Nc2ccc3c(c2)C(=O)C(=O)N3CN2CCOCC2)cc1			300	inactive	300							300		inactive	inactive				
O=C(/N=C/c1ccc(O)cc1)Nc1ccc2c(c1)C(=O)C(=O)N2CN1CCCCC1			300	inactive							300				inactive		Non-toxic	Non-toxic	
Cc1ccc(/C=N/C(=O)Nc2ccc3c(c2)C(=O)C(=O)N3CN2CCOCC2)cc1			300	inactive							300				inactive		Non-toxic	Non-toxic	
O=C(/N=C/c1ccc(O)cc1)Nc1ccc2c(c1)C(=O)C(=O)N2CN1CCOCC1		0	300		300	0	50	Non-toxic	0	0	300				inactive		Non-toxic		30
O=C(/N=C/c1ccc(F)cc1)Nc1ccc2c(c1)C(=O)C(=O)N2CN1CCCCC1	300				300						100	300	inactive			100			
O=C(/N=C/c1ccc(F)cc1)Nc1ccc2c(c1)C(=O)C(=O)N2CN1CCOCC1	100	50	300			25	100	Non-toxic	50	100	30	300				100		Non-toxic	
O=C(/N=C/c1ccc([N+](=O)[O-])cc1)Nc1ccc2c(c1)C(=O)C(=O)N2CN1CCOCC1			300	inactive							100				inactive		Non-toxic	Non-toxic	
O=C(/N=C/c1ccccc1Cl)Nc1ccc2c(c1)C(=O)C(=O)N2CN1CCOCC1	300										100	300	inactive			300		Non-toxic	
O=C1NC(=O)C(c2ccccc2)(c2ccccc2)N1 [PHENYTOIN]	30	75		inactive	100	25	75	Non-toxic	100	75	30	100	inactive						
